Laboratory results from ChEMBL document CHEMBL5247660, “The lipidation and glycosylation enabling bioactivity enhancement and structural change of antibacterial peptide G3” (Bioorg Med Chem Lett, 2023).
Values after ≈ are worked out from the molar mass of the structure shown. Active and inactive are the calls of the source. The calls are words filed in the database; no cut-off is given here. Residues, ends and D or L forms follow the SMILES beside them. *: point of attachment. βGlc = OC[C@H]1O[C@@H](*)[C@H](O)[C@@H](O)[C@@H]1O; βGal = OC[C@H]1O[C@@H](*)[C@H](O)[C@@H](O)[C@H]1O; Palmitoyl = CCCCCCCCCCCCCCCC(=O)*; Lauroyl = CCCCCCCCCCCC(=O)*; Octanoyl = CCCCCCCC(=O)*

Columns and labels:
Pseudomonas aeruginosa [1] = assay: Antibiofilm activity against Pseudomonas aeruginosa PAO1 assessed as inhibition of biofilm formation at 8 to 32 uM incubated for 24 hrs by microplate reader analysis relative to control; type: functional; conditions: dose 8-32 µM, read-out: MIC
Escherichia coli = assay: Antibacterial activity against Escherichia coli assessed as bacterial growth inhibition; type: functional
Staphylococcus aureus [2] = assay: Antibacterial activity against Staphylococcus aureus assessed as bacterial growth inhibition; type: functional
Staphylococcus aureus [3] = assay: Antibacterial activity against methicillin-resistant Staphylococcus aureus assessed as bacterial growth inhibition; type: functional
Pseudomonas aeruginosa [4] = assay: Antibacterial activity against Pseudomonas aeruginosa assessed as bacterial growth inhibition; type: functional
[5] = Hemolytic activity in sheep RBC assessed as hemolysis at 128 uM; type: toxicity, cell-based, Ovis aries; conditions: erythrocyte
Cell membrane = assay: Induction of outer membrane permeabilization in Pseudomonas aeruginosa PAO1 assessed as increase in NPN uptake at 8 to 32 uM by NPN-dye based fluorescence analysis; conditions: dose 8-32 µM
Pseudomonas aeruginosa [6] = assay: Antibiofilm activity against Pseudomonas aeruginosa PAO1 assessed as removal of mature biofilm at 32 uM incubated for 4 hrs at relative to control; type: functional
Pseudomonas aeruginosa [7] = assay: Antibiofilm activity against Pseudomonas aeruginosa PAO1; type: functional, organism-based
[8] = molecular target: T1, PA-I galactophilic lectin (Pseudomonas aeruginosa (strain ATCC 15692 / PAO1 / 1C / PRS 101 / LMG12228)) (UniProt Q05097); assay: Binding affinity to Pseudomonas aeruginosa LecA assessed as change in enthalpy
T1 sequence (whole entry): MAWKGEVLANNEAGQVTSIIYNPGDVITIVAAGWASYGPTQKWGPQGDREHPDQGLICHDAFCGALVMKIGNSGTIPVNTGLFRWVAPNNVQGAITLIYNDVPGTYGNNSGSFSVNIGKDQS

[9] = molecular target: T2, PA-I galactophilic lectin (Pseudomonas aeruginosa (strain ATCC 15692 / PAO1 / 1C / PRS 101 / LMG12228), UniProt Q05097); assay: Binding affinity to Pseudomonas aeruginosa LecA assessed as dissociation constant
T2 sequence (Q05097 whole entry): T1 sequence (whole entry)

[10] = molecular target: T1, PA-I galactophilic lectin (Pseudomonas aeruginosa (strain ATCC 15692 / PAO1 / 1C / PRS 101 / LMG12228)); assay: Binding affinity to Pseudomonas aeruginosa LecA assessed as change in entropy
Pseudomonas aeruginosa [11] = assay: Antibiofilm activity against Pseudomonas aeruginosa PAO1 assessed as inhibition of biofilm formation at 32 uM incubated for 24 hrs by microplate reader analysis relative to control; type: functional
Pseudomonas aeruginosa [12] = assay: Antibiofilm activity against Pseudomonas aeruginosa PAO1 assessed as increase in biofilm inhibition ratio at 2 times of MIC concentration incubated for 24 hrs by microplate reader analysis relative to control; type: functional; parameters: scale not given: the % may be the effect or the level left
Pseudomonas aeruginosa [13] = assay: Antibiofilm activity against Pseudomonas aeruginosa PAO1 assessed as increase in biofilm inhibition ratio at MIC concentration incubated for 24 hrs by microplate reader analysis relative to control; type: functional; parameters: scale not given: the % may be the effect or the level left
Pseudomonas aeruginosa [14] = assay: Antibiofilm activity against Pseudomonas aeruginosa PAO1 assessed as increase in biofilm inhibition ratio at half MIC concentration incubated for 24 hrs by microplate reader analysis relative to control; type: functional; parameters: scale not given: the % may be the effect or the level left
Pseudomonas aeruginosa [15] = assay: Antibiofilm activity against Pseudomonas aeruginosa PAO1 assessed as inhibition of biofilm formation ratio at MIC concentration incubated for 24 hrs by microplate reader analysis relative to control; type: functional; parameters: scale not given: the % may be the effect or the level left
[16] = Hemolytic activity in sheep RBC assessed as hemolysis; type: toxicity, cell-based, Ovis aries; conditions: erythrocyte
Pseudomonas aeruginosa [17] = assay: Antibiofilm activity against Pseudomonas aeruginosa PAO1 assessed as inhibition of biofilm formation ratio at 2 times of MIC concentration incubated for 24 hrs by microplate reader analysis relative to control; type: functional; parameters: scale not given: the % may be the effect or the level left

Compound | Minimum biofilm inhibitory concentration (Pseudomonas aeruginosa [1]) [µM] | MIC (Escherichia coli) [µM] | MIC (Staphylococcus aureus [2]) [µM] | MIC (Staphylococcus aureus [3]) [µM] | MIC (Pseudomonas aeruginosa [4]) [µM] | Activity [5] | Activity (Cell membrane) | Activity (Pseudomonas aeruginosa [6]) [%] | Activity (Pseudomonas aeruginosa [7]) | deltaH [8] [kcal/mol] | Kd [9] [µM] | deltaS [10] [J/mol/K] | MIC (Pseudomonas aeruginosa [11]) [µM] | Activity (Pseudomonas aeruginosa [12]) [%] | Activity (Pseudomonas aeruginosa [13]) [%] | Activity (Pseudomonas aeruginosa [14]) [%] | Activity (Pseudomonas aeruginosa [15]) [%] | Activity [16] | Activity (Pseudomonas aeruginosa [17]) [%]
CCCCCCCC(=O)NCC(=O)N[C@H](C(=O)N[C@H](C(=O)N[C@@H](CCCCN)C(=O)N[C@@H](CCCCN)C(=O)N[C@H](C(=O)N[C@H](C(=O)N[C@@H](CCCCN)C(=O)N[C@@H](CCCCN)C(=O)N[C@H](C(=O)N[C@H](C(=O)N[C@@H](CCCCN)C(=O)N[C@@H](CCCCN)C(=O)N[C@H](C(N)=O)[C@@H](C)CC)[C@@H](C)CC)[C@@H](C)CC)[C@@H](C)CC)[C@@H](C)CC)[C@@H](C)CC)[C@@H](C)CC (Octanoyl-GIIKKIIKKIIKKI-NH2) | 16 | 4 (≈ 7.05 µg/mL) | 4 (≈ 7.05 µg/mL) | 4 (≈ 7.05 µg/mL) | 16 (≈ 28.2 µg/mL) | Toxic | Active | – | – | – | – | – | – | – | – | – | – | – | –
CC[C@H](C)[C@H](NC(=O)CN)C(=O)N[C@H](C(=O)N[C@@H](CCCCN)C(=O)N[C@@H](CCCCN)C(=O)N[C@H](C(=O)N[C@H](C(=O)N[C@@H](CCCCN)C(=O)N[C@@H](CCCCN)C(=O)N[C@H](C(=O)N[C@H](C(=O)N[C@@H](CCCCN)C(=O)N[C@@H](CCCCN)C(=O)N[C@H](C(=O)N[C@@H](CO[C@@H]1O[C@H](CO)[C@@H](O)[C@H](O)[C@H]1O)C(N)=O)[C@@H](C)CC)[C@@H](C)CC)[C@@H](C)CC)[C@@H](C)CC)[C@@H](C)CC)[C@@H](C)CC (H-GIIKKIIKKIIKKIS(βGlc)-NH2) | 16 | 32 (≈ 60.3 µg/mL) | 16 (≈ 30.2 µg/mL) | 32 (≈ 60.3 µg/mL) | 16 (≈ 30.2 µg/mL) | – | Active | 71 | Active | – | – | – | – | – | – | – | – | – | –
CCCCCCCCCCCC(=O)NCC(=O)N[C@H](C(=O)N[C@H](C(=O)N[C@@H](CCCCN)C(=O)N[C@@H](CCCCN)C(=O)N[C@H](C(=O)N[C@H](C(=O)N[C@@H](CCCCN)C(=O)N[C@@H](CCCCN)C(=O)N[C@H](C(=O)N[C@H](C(=O)N[C@@H](CCCCN)C(=O)N[C@@H](CCCCN)C(=O)N[C@H](C(N)=O)[C@@H](C)CC)[C@@H](C)CC)[C@@H](C)CC)[C@@H](C)CC)[C@@H](C)CC)[C@@H](C)CC)[C@@H](C)CC (Lauroyl-GIIKKIIKKIIKKI-NH2) | 16 | 12 (≈ 21.8 µg/mL) | 4 (≈ 7.27 µg/mL) | 12 (≈ 21.8 µg/mL) | 16 (≈ 29.1 µg/mL) | – | Active | – | – | – | – | – | – | – | – | – | – | – | –
CCCCCCCC(=O)NCC(=O)N[C@H](C(=O)N[C@H](C(=O)N[C@@H](CCCCN)C(=O)N[C@@H](CCCCN)C(=O)N[C@H](C(=O)N[C@H](C(=O)N[C@@H](CCCCN)C(=O)N[C@@H](CCCCN)C(=O)N[C@H](C(=O)N[C@@H](CO[C@@H]1O[C@H](CO)[C@H](O)[C@H](O)[C@H]1O)C(N)=O)[C@@H](C)CC)[C@@H](C)CC)[C@@H](C)CC)[C@@H](C)CC)[C@@H](C)CC (Octanoyl-GIIKKIIKKIS(βGal)-NH2) | 16 | 12 (≈ 18.3 µg/mL) | 4 (≈ 6.11 µg/mL) | 4 (≈ 6.11 µg/mL) | 16 (≈ 24.4 µg/mL) | – | Active | – | – | -6.53 | 28 | -4.53 | – | – | – | – | – | – | –
CC[C@H](C)[C@H](NC(=O)CN)C(=O)N[C@H](C(=O)N[C@@H](CCCCN)C(=O)N[C@@H](CCCCN)C(=O)N[C@H](C(=O)N[C@H](C(=O)N[C@@H](CCCCN)C(=O)N[C@@H](CCCCN)C(=O)N[C@H](C(=O)N[C@H](C(=O)N[C@@H](CCCCN)C(=O)N[C@@H](CCCCN)C(=O)N[C@H](C(=O)N[C@@H](CO[C@@H]1O[C@H](CO)[C@H](O)[C@H](O)[C@H]1O)C(N)=O)[C@@H](C)CC)[C@@H](C)CC)[C@@H](C)CC)[C@@H](C)CC)[C@@H](C)CC)[C@@H](C)CC (H-GIIKKIIKKIIKKIS(βGal)-NH2) | 16 | 32 (≈ 60.3 µg/mL) | 16 (≈ 30.2 µg/mL) | 32 (≈ 60.3 µg/mL) | 16 (≈ 30.2 µg/mL) | – | Active | 62 | Active | -23.9 | 21.1 | -246 | 32 (≈ 60.3 µg/mL) | – | – | – | – | – | –
H-GIIKKIIKKIIKKI-NH2 | 16 | 8 | 4 | 16 | 16 | – | Active | – | – | – | – | – | – | 59 | 46 | 45 | – | – | –
CCCCCCCC(=O)NCC(=O)N[C@H](C(=O)N[C@H](C(=O)N[C@@H](CCCCN)C(=O)N[C@@H](CCCCN)C(=O)N[C@H](C(=O)N[C@H](C(=O)N[C@@H](CCCCN)C(=O)N[C@@H](CCCCN)C(=O)N[C@H](C(=O)N[C@H](C(=O)N[C@@H](CCCCN)C(=O)N[C@@H](CCCCN)C(=O)N[C@H](C(=O)N[C@@H](CO[C@@H]1O[C@H](CO)[C@H](O)[C@H](O)[C@H]1O)C(N)=O)[C@@H](C)CC)[C@@H](C)CC)[C@@H](C)CC)[C@@H](C)CC)[C@@H](C)CC)[C@@H](C)CC)[C@@H](C)CC (Octanoyl-GIIKKIIKKIIKKIS(βGal)-NH2) | 16 | 4 (≈ 8.04 µg/mL) | 4 (≈ 8.04 µg/mL) | 4 (≈ 8.04 µg/mL) | 16 (≈ 32.2 µg/mL) | – | Active | – | Active | -4.53 | 14.1 | 29.4 | – | – | – | – | 71 | Dose-Dependent Effect | 71
CCCCCCCCCCCCCCCC(=O)NCC(=O)N[C@H](C(=O)N[C@H](C(=O)N[C@@H](CCCCN)C(=O)N[C@@H](CCCCN)C(=O)N[C@H](C(=O)N[C@H](C(=O)N[C@@H](CCCCN)C(=O)N[C@@H](CCCCN)C(=O)N[C@H](C(=O)N[C@H](C(=O)N[C@@H](CCCCN)C(=O)N[C@@H](CCCCN)C(=O)N[C@H](C(N)=O)[C@@H](C)CC)[C@@H](C)CC)[C@@H](C)CC)[C@@H](C)CC)[C@@H](C)CC)[C@@H](C)CC)[C@@H](C)CC (Palmitoyl-GIIKKIIKKIIKKI-NH2) | 16 | 32 (≈ 60 µg/mL) | 16 (≈ 30 µg/mL) | 32 (≈ 60 µg/mL) | 32 (≈ 60 µg/mL) | – | Active | – | – | – | – | – | – | – | – | – | – | – | –
Ac-GIIKKIIKKIIKKI-NH2 | 16 | 12 | 4 | 12 | 32 | – | Active | – | – | – | – | – | – | – | – | – | – | – | –
